Results published in patent US20120053119A1, “THERAPEUTIC METHOD FOR INCREASING PANCREATIC BETA CELL MASS” (priority 2009, published 2012).

Columns and labels:
Assay type in all cases: cell-based
Wnt signaling = Wnt signaling luciferase reporter assay (TOPflash/FOPflash) in INS-1 cells; settings: dose response
Experimental: Wnt signaling is indicated by the value of TOPflash luciferase activity divided by FOPflash activity. A. Time course of the TOPflash:FOPflash ratio of INS-1 cell treated with 1 nM SDF-1. B. Ratio of TOPflash to FOPflash activity in INS-1 cells treated with increasing doses of SDF-1. C. […] All values are relative to the value of the untreated INS-1 cells. Data are normalized for transfection efficiency by co-transfected beta-galactosidase and represent means±S.D. of three experiments.
All values are relative to the first (leftmost) bar. Statistical significance is depicted as * (p<0.05) when compared with control values (leftmost bar). Data are normalized for transfection efficiency by co-transfected beta-galactosidase and represent means±S.D. of three experiments.
Wnt Signaling Luciferase Reporter Assay (TOPflash) INS-1 cells were plated into 24-well dishes 24 hr before transfection with TOPflash or the mutant, control reporter, FOPflash (1 microg/well) using LipofectAMINE2000 (Invitrogen). Various concentrations of SDF-1 or AMD3100 were then added to the culture medium 24 h following transfection for the indicated period of time. In studies in which inhibitors were used, LY294002 (50 microM), PD98059 (10 microM) or SH-5 (10 nM) were added concomitantly with SDF-1. In studies in which wild-type (wt), dominant-negative (dn) or contitutively-active (ca) forms of kinase were used, dnTCF7L2, dnGSK3beta, caGSK3beta, dnAkt, or caAkt (0.5 microg/well) was cotransfected with TOPflash. Luciferase activity in transfected cells was determined with a luciferase assay kit (Promega).
We examined SDF-1 induction of Wnt signaling using a Wnt signaling reporter assay (TOPflash/FOPflash). The TOPflash and FOPflash constructs contain the luciferase reporter either under the control of consensus TCF7L2-binding sites or mutated TCF7L2-binding sites, respectively. Luciferase activity was measured during 4 hr after addition of 1 nM SDF-1 (FIG. 3A).

MIN6 cells = experiment: Thapsigargin-induced apoptosis, Western immunoblot of cleaved caspase-3 and cleaved PARP; settings: SDF-1 10 nM with thapsigargin 1 microM, 16 h
Experimental: (§1) FIG. 6. Inhibition of apoptosis by SDF-1 in INS-1 and MIN-6 cells is reversed by knock-down of betacatenin. A. Western blot analysis of extracts from MIN6 cells that were mock treated, thapsigargin-treated (1 μM) and/or siRNA transfected (0.25 mg/ml), by using anti-serum against cleaved caspase-3 (upper panel), anti-serum against cleaved PARP (middle panel) and actin antibody (lower panel) as a loading control. B. Caspase-3 activity (fluorescence/mg proteinx105) of INS-1 or MIN6 cells mock treated, thapsigargin-treated (1 μM) and/or siRNA transfected (0.25 mg/ml). Results are presented as mean±SD for n=3 independent experiments, All values are relative to the first (leftmost) bar. […] Quantification of apoptotic cells is expressed as percent apoptotic cells relative to the total cells counted (lower left panel). […]
(§2) Thapsigargin-induced apoptosis in INS-1 or MIN6 cells For western immuoblot assay (Cell Signaling), MIN6 cells were seeded into 6 well plates then treated with 1 microM thapsigargin or DMSO control for 16 h and apoptotic activity was measured by Western immunoblotting using antisera specific for cleaved (active) caspase-3 (Cell signaling #9661) and cleaved (active) PARP (Cell signaling #9548). For caspase-3 assay, INS-1 cells or MIN-6 cells in 24-well plates were treated with 1 microM thapsigargin or DMSO for 16 hand caspase-3 activity was determined (Molecular Probes). […]

INS-1 cells [1] = experiment: ATP-lite cell viability assay, serum deprivation, SDF-1 with AMD3100; settings: serum-free medium, SDF-1 2 nM, day 6
Experimental: ATP lite cell viability assay: INS-1 cells were plated in 96 well plates. SDF-1 (2 nM) and AMD3100 were added at day 0, 2, 4 and cell viability was measured at day 6 using relative light units (RLU) as compared to control. N=6.
INS-1 cells were plated in 96 well plates in control medium (no serum) or a medium containing 2% serum. SDF-1 (2 nM) and SDF-1 (2 nM) along with various concentrations of AMD3100 (2 uM, 0.4 uM, 80 nM, 16 nM) were added to different cell groups incubated in serum-free medium at days 0, 2, 4, and cell viability was measured at day 6 using relative light units (RLU) as compared to control.

Akt = experiment: Phospho-Akt to Akt ratio by Western immunoblot in alphaTC-1 cells
Description: FIG. 18. Activation of CXCR4 by SDF-1 in alphaTC-1 cells induces phosphorylation of Akt. Shown is a semi-quantitative measurement of the ratio of phospho-Akt to Akt (lower) determined by Western immunoblots (upper).

human islets = experiment: SDF-1 mRNA by QRT-PCR in human islets ex vivo; settings: 4 hours; SDF-1 10 nM or 50 nM; two cytokine mixtures
Experimental: FIG. 29. […] 50 human islets were treated with control, cytokine mixture or SDF-1 for 4 hr, mRNA was then extracted and QRT-PCR was performed. Cytokines 1: 2 ng/ml IL-1beta, 10 ng/ml TNF-alpha, 10 ng/ml IFN-gamma. Cytokines 2: 10 ng/ml IL-1beta, 50 ng/ml TNF-alpha, 50 ng/ml IFN-gamma.
Groups of 50 human islet cells were treated with one of vehicle control, two different cytokine mixtures (Cytokines 1: 2 ng/ml IL-1beta, 10 ng/ml TNF-alpha, 10 ng/ml IFN-gamma; Cytokines 2: 10 ng/ml IL-1beta, 50 ng/ml TNF-alpha, 50 ng/ml IFN-gamma), or SDF-1 at one of two different concentrations (10 nM or 50 nM) for 4 hours. SDF-1 mRNA was then extracted and QRT-PCR was performed.

INS-1 cells [2] = experiment: Cell proliferation assay, BrdU incorporation; settings: SDF-1 10 nM overnight
Experimental: FIG. 6. Inhibition of apoptosis by SDF-1 in INS-1 and MIN-6 cells is reversed by knock-down of betacatenin. A. Western blot analysis of extracts from MIN6 cells that were mock treated, thapsigargin-treated (1 μM) and/or siRNA transfected (0.25 mg/ml), by using anti-serum against cleaved caspase-3 (upper panel), anti-serum against cleaved PARP (middle panel) and actin antibody (lower panel) as a loading control. B. Caspase-3 activity (fluorescence/mg proteinx105) of INS-1 or MIN6 cells mock treated, thapsigargin-treated (1 μM) and/or siRNA transfected (0.25 mg/ml). Results are presented as mean±SD for n=3 independent experiments, All values are relative to the first (leftmost) bar. Statistical significance is depicted as * (p<0.05) when compared with control values (leftmost bar) and # (<0.05) when compared with […] thapsigargin treatment. C. Representative images are shown for TUNEL staining of INS-1 cells of n=3 independent experiments. Quantification of apoptotic cells is expressed as percent apoptotic cells relative to the total cells counted (lower left panel). […]
Cell Proliferation Assay Proliferation of INS-1 cells was determined by incorporation of BrdU into newly synthesized DNA of proliferating cells. […] BrdU staining was measured by the DELFIA cell proliferation kit (Perkin Elmer).

INS-1 or MIN6 cells = experiment: Thapsigargin-induced apoptosis, caspase-3 activity assay; settings: SDF-1 10 nM with thapsigargin 1 microM, 16 h
Experimental: as §1, §2

Substance: SDF-1: small, secreted 70 amino acid peptide chemokine, SEQ ID NO: 1, ligand of CXCR4
- SDF-1 concentration giving maximum Wnt signaling response (TOPflash/FOPflash) (Wnt signaling): 0.4 nM
- effect on thapsigargin-increased levels of cleaved caspase-3 and PARP (MIN6 cells): inhibited
- protection of cell viability in serum deprivation (INS-1 cells [1]): protects INS-1 cells from dying
- Akt activation (phosphorylation) in alpha cells (Akt): activates Akt
- SDF-1 expression (mRNA) in human islets (human islets): induce SDF-1 expression
- effect on proliferation of INS-1 cells, BrdU incorporation (INS-1 cells [2]): no detectable effects
- effect on thapsigargin-induced caspase-3 activity (proapoptotic effect) (INS-1 or MIN6 cells): attenuated
